Test results: ChEMBL document CHEMBL1201862, “PubChem BioAssay data set” (2004)
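Cells were grown in 96-well plates and exposed to each compound for 48 hours at five concentrations; endpoints were interpolated linearly between bracketing concentrations, or set to the highest concentration if not reached. The concentration for 50% growth inhibition is given as GI50.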 The source made the active and inactive calls. Rule as the data show it: active = GI50 up to about 1.1 µM and inactive = higher.

Columns and labels:
Assay in all cases: inhibition of tumour cell growth, NCI panel, 48 h
[1] = test system: SF-539
[2] = test system: NCI/ADR-RES
[3] = test system: COLO 205
[4] = test system: HCC 2998
[5] = test system: SNB-75
[6] = test system: SF-268
[7] = test system: ACHN
[8] = test system: HOP-62
[9] = test system: SR
[10] = test system: SNB-19
[11] = test system: OVCAR-4
[12] = test system: TK-10
[13] = test system: UACC-257
[14] = test system: Hs-578T
[15] = test system: T47D
[16] = test system: UO-31
[17] = test system: SF-295
[18] = test system: HL-60
[19] = test system: SK-OV-3
[20] = test system: SN12C

Measured: GI50

COc1cc2c(cc1C[N+](C)(C)CSc1ccccc1)-c1ccccc1CC2
active: [18] 0.721 µM
inactive: [1] 7.96 µM | [2] 37.5 µM | [3] 1.75 µM | [4] 4.31 µM | [5] 1.19 µM | [6] 5.32 µM | [7] 15.3 µM | [8] 11.4 µM | [9] 2.01 µM | [10] 4.28 µM | [11] 5.98 µM | [12] 8.77 µM | [13] 2.52 µM | [14] 4.99 µM | [15] 2.91 µM | [16] 15.2 µM | [17] 12.2 µM | [19] 12.6 µM | [20] 6.21 µM

O=C(NN=C1NCCN1)c1ccco1
inactive: [1] > 100 µM | [2] > 100 µM | [3] > 100 µM | [4] > 100 µM | [5] > 100 µM | [6] > 100 µM | [7] > 100 µM | [8] > 100 µM | [9] > 100 µM | [10] > 100 µM | [11] > 100 µM | [12] > 100 µM | [13] > 100 µM | [14] > 100 µM | [15] > 100 µM | [16] > 100 µM | [17] > 100 µM | [18] > 100 µM | [19] > 100 µM | [20] > 100 µM

Cc1ccc(C2=CC(=O)OC(C[P+](c3ccccc3)(c3ccccc3)c3ccccc3)(c3ccccc3)O2)cc1 (stereo not given)
inactive: [1] 18.1 µM | [2] 19 µM | [3] 14.3 µM | [4] 22.4 µM | [5] 21.3 µM | [6] 18.5 µM | [7] 21.3 µM | [8] 19.5 µM | [9] 15.6 µM | [10] 17 µM | [11] 16.4 µM | [12] 20.1 µM | [13] 16.9 µM | [14] 18.2 µM | [15] 20.6 µM | [16] 16.3 µM | [17] 26.9 µM | [18] 20.1 µM | [19] 18.2 µM | [20] 27.2 µM
